US20080045499A1, “Preferential Inhibition of Presenilin-1” (Elan Pharmaceuticals, Inc., priority 2006, published 2008)
Where two headings read alike, the source gives them in different places.

Columns and labels:
PS2/1C = test: Inhibition of chimeric presenilin PS2/1C; format: cell-based, human; conditions: chimeric PS1/PS2 molecule, FIG. 11
Description: Human PS1, PS2, and APPsw cDNA inserts were subcloned into pCF vector, which was modified with pcDNA3 (Invitrogen, CA, USA) by inserting the adenoviral tripartite leader sequence (Berkner et al, (1987) J. Virol. April; 61(4): 1213-20. Abundant expression of polyomavirus middle T antigen and dihydrofolate reductase in an adenovirus recombinant) 38 bp upstream of the starting ATG codon, between the CMV promoter and the EcoR1 site. Construction of presenilin chimeras was PCR-based. For making chimeras that contain PS1backbone and a PS2 fragment, we first generated a large PCR fragment that contained the entire pCF vector plus all PS1 sequence to be retained, and a small PCR fragment that only contained the PS2 fragment to be used in the final chimera. The two PCR fragments were then ligated in a blunt-end fashion by Rapid DNA ligation kit (Roche, Ind., USA). We used pfu Turbo DNA polymerase kit (Strategene, Calif., USA) for all PCR reactions. To avoid potential mutations introduced by PCR, we first sequenced the entire insert in both strands. […] For making chimeras that contained PS2 backbone and a PS1 fragment, we first generated a large PCR fragment that contained the entire pCF vector plus all PS2 sequence to be retained, and a small PCR fragment that only contained the PS1 fragment to be used in the final chimera. All other cloning procedures were the same as described above. […]

[1] = tested on: Presenilin-1-comprised γ-secretase relative to Presenilin-2-comprised γ-secretase; test: PS1/PS2 selectivity: ratio of EC50 in Presenilin-2 and Presenilin-1 transfected cells; format: cell-based, human; conditions: for PS2/PS1 EC50 ratio: EC50 of Presenilin-2 transfected cells over Presenilin-1 transfected cells
Description: (§1) EC50 values were derived by curve fitting of Aβ1-x levels, for samples treated with various concentrations of gamma secretase inhibitors, with XLfit software program (IDBS, Alameda, Calif., USA). Differences in EC50 values obtained for Presenilin-1 transfected cells and Presenilin-2 transfected cells exposed to a test compound served as an indicator of differential inhibition.
Cell culture medium is then removed from the transfected cell lines and analyzed for Aβ1-x levels by ELISA assay, as described in Example 1. ELISA assays are performed using ELISA plates coated with the mAb 266 to capture Aβ peptides and then by detecting Aβ peptides with biotinylated mAb 3D6. EC50 values are derived for all of the test compounds. Differences in EC50 values obtained for Presenilin-1 transfected cells and Presenilin-2 transfected cells exposed to a test compound serve as an indicator of differential inhibition.
For example, several tested compounds are sulfonamide compounds, while several are non-sulfonamide compounds. The ratio of the EC50 value obtained for Presenilin-2 transfected cells and Presenilin-1 transfected cells (indicated in the last column of Table I) indicates the degree to which the test compound is capable of preferentially inhibiting Presenilin-1. […] In Table 2, the values shown in columns A, B and C are EC50 values (nM). Where inhibition was very low, EC50 values were not generated by the program; thus EC50 values are not provided. Rather, percent of inhibition was estimated based on the inhibition curve generated by the program. Percentages indicate percentage inhibition at a compound concentration of 10 uM. […]

[2] = target: T1, Presenilin-2-comprised γ-secretase (Homo sapiens, UniProt P49810); test: Aβ1-x ELISA in Presenilin-2 transfected PS1/PS2 double knockout mouse fibroblasts; format: cell-based; conditions: for EC50: Aβ1-x, Presenilin-2 transfected cells, overnight; for inhibition at 10 µM: compound concentration of 10 uM, estimated from the inhibition curve
T1 construct: expressed in transfected cells; host or cells: mouse fibroblasts derived from PS1/PS2 double knockout cells, pCF vector
Description: (§2) A131-x represents any Aβ peptides longer than Aβ1-23, including Aβ38, Aβ40, and Aβ42, since Aβ1-x is defined operationally by an ELISA assay using proprietary antibody mAb 266 for capture and proprietary antibody mAb 3D6 for detection. The epitope for mAb266 is Aβ16-23, and the epitope for mAb 3D6 is Aβ1-5. […] Aβ40 ELISA employed antibodies mAb 266 as capture and 2G3 (specific for Ab40) as detection, respectively. Furthermore, Aβ42 ELISA employed antibodies mAb 266 as capture and 21F12 as detection, respectively. Hybridomas producing antibodies against Aβ16-23 were generated by standard murine fusion procedures as detailed in Kohler and Milstein (Nature 256:495 1975) and U.S. Pat. No. 4,666,829 which are hereby incorporated by reference in their entireties. See also “Detailed Description” herein. Briefly, two BALB/c mice immunized with Aβ13-28 conjugated to 2C-11 (a T-cell receptor monoclonal antibody) were sacrificed and the spleens removed. Mixed splenocytes were obtained by pressing the spleens through a 30 mesh stainless steel screen. These were fused with P3X63Ag8 murine myeloma cells (aminopterin sensitive) at a fusion ratio of 10:1 in 35% polyethylene-glycol. These cells were plated out in 96 well tissue culture plates in the presence of 2×10^6 thymocytes/ml. Hybridomas were selected for by growing the cells in the presence of aminopterin poisoned Dulbecco's modified Eagle's media augmented with hypoxanthine, thymine and 10% fetal bovine serum. Hybridomas were screened for reactivity against Aβ13-28 and AAP protein via ELISA. Positive clones were sub-cloned twice. Aliquots of the clones were frozen and stored in liquid nitrogen. Supernatants from positive clones were produced in large quantities for further purification of monoclonal antibodies.
(§3) For ELISA assays, each well of 96-well ELISA plates was coated with 100 μl of 10 μg/ml 266 in Well Coating Buffer (pH 8.5) at 4 degrees overnight, and blocked with 0.25% human BSA solution at 25 degrees for 120 minutes. The plate can be used directly without wash, after removing blocking solution.
(§4) ELISA assays were performed at room temperature. Fifty μl of conditioned medium from overnight culture of transfected cells, with or without gamma secretase inhibitors, were added to each well of ELISA plates, and incubated for 1 hour. After washing plates with Tris-buffered saline (TBS) plus 0.05% Tween-20, 50 μl biotinylated 3D6 antibody at 0.5 μg/ml was added to each well and incubate for 45 minutes. […] Next, plates were washed with Tris-buffered saline (TBS) plus 0.05% Tween-20, and 50 μl substrate (1-step slow TMB-Elisa, Pierce, Woburn, Mass., USA, catalogue number: 34024) was added to each well and incubated for 15 min. Finally, substrate reactions were terminate by adding to each well 15 ul 2 NH2SO4, and OD readings were obtained on SpectraMax Plus (Molecular Devices, Sunnyvale, Calif., USA). The Aβ concentration of samples was then obtained by comparing sample OD readings to those of standards.
as §1
(§5) Transfected mouse fibroblasts derived from the PS1/PS2 double knockout cells are grown at 37 degree under 10% CO2 in Dulbecco's modified Eagle's medium (DMEM) containing 2-10% fetal bovine serum (FBS) and 100 μg/ml penicillin/streptomycin (Pen/Strp) (Invitrogen Corporation, Carlsbad, Calif., USA).
(§6) Cell culture medium is then removed from the transfected cell lines and analyzed for Aβ1-x levels by ELISA assay, as described in Example 1. ELISA assays are performed using ELISA plates coated with the mAb 266 to capture Aβ peptides and then by detecting Aβ peptides with biotinylated mAb 3D6.

293sw = 293sw IC50 of gamma-secretase inhibitors; format: cell-based
[3] = target: T2, Presenilin-1-comprised γ-secretase (Homo sapiens, UniProt P49768); test: Aβ1-x ELISA in Presenilin-1 transfected PS1/PS2 double knockout mouse fibroblasts; format: cell-based; conditions: Aβ1-x, Presenilin-1 transfected cells, overnight
T2 construct: expressed in transfected cells; host or cells: mouse fibroblasts derived from PS1/PS2 double knockout cells, pCF vector
Description: as §2, §3, §4, §1, §5, §6

[4] = column A, read-out: PS2 EC50* (nM) A
[5] = column B, read-out: PS2 EC50* (nM) B
[6] = column C, read-out: PS2 EC50* (nM) C
[7] = column A, read-out: PS1 EC50 (nM) A
[8] = column B, read-out: PS1 EC50 (nM) B
[9] = column C, read-out: PS1 EC50 (nM) C
[10] = column A, read-out: PS2 percentage inhibition, column A
[11] = column B, read-out: PS2 percentage inhibition, column B

Compound	inhibitor potencies against PS2/1C compared with PS1 (PS2/1C)	fold more selective for PS1 ([1]; mean values from 2 independent experiments (FIG. 11))	EC50 [2, 4]	EC50 [2, 5]	EC50 [2, 6]	IC50 (293sw)	PS2/PS1 EC50 ratio [1]	EC50 [3, 7]	EC50 [3, 8]	EC50 [3, 9]	inhibition at 10 µM [2, 10]	inhibition at 10 µM [2, 11]
BMS299897 [reference compound]	behaved just like PS1	~35 fold	–	–	–	–	–	–	–	–	–	–
COc1ccc(CN([C@@H]2CCCCNC2=O)S(=O)(=O)c2ccc(Cl)cc2)cc1OC	–	–	1290 nM	1980 nM	4540 nM	0.126 µM	27	91 nM	89 nM	109 nM	–	–
O=C1NCCCC[C@H]1N(Cc1ccc2nccnc2c1)S(=O)(=O)c1ccc(Cl)cc1	–	–	1410 nM	1040 nM	–	0.009 µM	37	36 nM	31 nM	–	–	–
CCCCN([C@@H]1CCCCNC1=O)S(=O)(=O)c1ccc(Cl)cc1	–	–	–	–	–	0.192 µM	>10	1410 nM	928 nM	–	26%	15%
Cc1nc(-c2ccc(CN([C@@H]3CCCCNC3=O)S(=O)(=O)c3ccc(Cl)cc3)cc2)no1	–	–	750 nM	809 nM	–	0.044 µM	8	105 nM	98 nM	–	–	–
Cn1nnc2cc(CN([C@@H]3CCCCNC3=O)S(=O)(=O)c3ccc(Cl)s3)ccc21	–	–	6410 nM	5310 nM	3000 nM	0.775 µM	47	122 nM	87 nM	102 nM	–	–
C[C@H](NC(=O)[C@@H](O)c1cc(F)cc(F)c1)C(=O)Nc1cc(C(C)(C)c2ccccc2)n[nH]1	–	–	26 nM	23 nM	–	0.001 µM	2	8.2 nM	8.3 nM	19 nM	–	–
C[C@@H](NC(=O)c1ccc(CN([C@@H]2CCCCNC2=O)S(=O)(=O)c2ccc(Cl)cc2)cc1)c1ccccc1	–	–	60 nM	91 nM	–	0.016 µM	1.5	57 nM	44 nM	–	–	–
CSc1ncccc1-c1nc(CN([C@@H]2CCCCNC2=O)S(=O)(=O)c2ccc(Cl)cc2)no1	–	–	2100 nM	2580 nM	–	0.112 µM	11	212 nM	116 nM	–	–	–
COc1ccc(CN([C@@H](CO)CC(C)C)S(=O)(=O)c2ccc(Cl)cc2)cc1OC	–	–	–	–	–	0.123 µM	˜26	385 nM	364 nM	–	47%	48%
O=C1NCCCC[C@H]1N(Cc1ccc(Br)cc1)S(=O)(=O)c1ccc(Cl)nc1	–	–	1570 nM	2290 nM	–	0.118 µM	31	92 nM	189 nM	87 nM	–	–
COc1ccc(CN(C2CCCCC2C)S(=O)(=O)c2ccc(Cl)cc2)cc1OC (centres unmarked)	–	–	606 nM	404 nM	–	0.055 µM	10	49 nM	48 nM	–	–	–
O=C1NCCCC[C@H]1N(Cc1ccc2snnc2c1)S(=O)(=O)c1ccc(Cl)cc1	–	–	922 nM	951 nM	–	0.008 µM	47	18 nM	23 nM	–	–	–
